Results: US8883782B2, “Spiro-tetracyclic ring compounds as beta-secretase modulators and methods of use” (Amgen Inc., priority 2010, dated 2014)
Where two headings read alike, the source gives them in different places.

Tests used:
[1] = target: Beta Secretase enzyme (BACE) (Homo sapiens, UniProt P56817); assay: In vitro enzymatic BACE FRET (fluorescence resonance energy transfer) assay; format: biochemical; conditions: average IC50, enzyme assay; read-out: BACE 1 FRET assay
Method in brief: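 Run in 0.05 M acetate pH 4.2 with 10% DMSO final and 100 uM genapol; started by adding 50 nM FRET peptide substrate (fluorophore and quencher flanking the cleavage site), incubated one hour, then stopped with Tris to neutral pH before reading fluorescence.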

[2] = tested on: Aβ40 in conditioned medium of cells stably expressing Amyloid Precursor Protein (APP); assay: In vitro BACE cell-based assay (Aβ40 in conditioned medium, sandwich ELISA); conditions: read-out: HEK cell assay
Method in brief: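 The sandwich ELISA pairs pAb40 capture (3 h, 4 °C) with 6E10 detection (2 h, 4 °C) and a streptavidin-europium TRF read-out. Supernatants come from APP-expressing cells grown in 10% FBS DMEM.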

[3] = Homo sapiens, HEK293, average IC50
[4] = Homo sapiens, HEK293, average IC50, HEK cells

Beta Secretase enzyme (BACE), sequence (P56817 46-501, species assumed): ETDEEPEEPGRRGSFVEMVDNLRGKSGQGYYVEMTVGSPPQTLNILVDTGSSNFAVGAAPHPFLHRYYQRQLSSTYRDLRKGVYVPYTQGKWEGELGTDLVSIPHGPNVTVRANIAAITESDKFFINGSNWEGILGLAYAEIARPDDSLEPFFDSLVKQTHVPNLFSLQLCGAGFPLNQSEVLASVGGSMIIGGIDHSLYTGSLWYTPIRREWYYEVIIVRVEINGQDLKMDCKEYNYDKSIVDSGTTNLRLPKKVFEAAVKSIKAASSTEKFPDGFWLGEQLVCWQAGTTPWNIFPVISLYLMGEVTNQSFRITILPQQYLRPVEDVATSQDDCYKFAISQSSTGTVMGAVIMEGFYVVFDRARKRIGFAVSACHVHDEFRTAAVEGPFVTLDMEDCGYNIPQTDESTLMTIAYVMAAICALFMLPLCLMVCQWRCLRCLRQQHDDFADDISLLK

Row | Structure (SMILES) | IC50 [1] [nM] | IC50 [2, 3] [nM] | IC50 [2, 4] [nM] | IC50 [2] [nM]
1 | C[C@@](C#Cc1cnc2c(c1)[C@]1(COC(N)=N1)c1cc(-c3cccnc3F)ccc1O2)(CO)CCl (single isomer, unassigned) [Example 1014] | 2.2 | – | – | 21
2 | NC1=N[C@]2(CO1)c1cc(N3CCOCC3)ccc1Oc1cc(F)c(-c3cncnc3)cc12 [Example 335, (4S)-3′-fluoro-7′-(4-morpholinyl)-2′-(5-pyrimidinyl)spiro[1,3-oxazole-4,9′-xanthen]-2-amine] | 16.4 | 43.3 | – | –
3 | NC1=N[C@]2(CO1)c1cc(Br)ccc1Oc1c(F)cc(Cl)nc12 [Example 489, (10R)-8-bromo-2-chloro-4-fluorospiro[chromeno[3,2-b]pyridine-10,4′-[1,3]oxazol]-2′-amine] | 8120 | – | 10000 | –
4 | CC1(C#Cc2cnc3c(c2)[C@@]2(COC(N)=N2)c2cc(-c4cncc(Cl)c4)c(F)cc2O3)COC1 [Example 625, (5R)-7-(5-chloro-3-pyridinyl)-8-fluoro-3-((3-methyl-3-oxetanyl)ethynyl)spiro[chromeno[2,3-b]pyridine-5,4′-[1,3]oxazol]-2′-amine] | 901 | – | 2210 | –
5 | CC1(C#Cc2cc(F)c3c(c2)[C@]2(COC(N)=N2)c2cc(-c4cncc(F)c4)ccc2O3)COC1 [Example 599, (4S)-4′-fluoro-7′-(5-fluoro-3-pyridinyl)-2′-((3-methyl-3-oxetanyl)ethynyl)spiro[1,3-oxazole-4,9′-xanthen]-2-amine] | 1.1 | – | 11 | –
6 | NC1=N[C@@]2(CO1)c1cc(-c3ccccc3)ccc1Oc1cnc(C3CCOCC3)cc12 [Example 238, (5S)-7-phenyl-3-(tetrahydro-2H-pyran-4-yl)spiro[chromeno[2,3-c]pyridine-5,4′-[1,3]oxazol]-2′-amine] | 40.7 | 164 | – | –
7 | COC(C)(C)C#Cc1cnc2c(c1)[C@@]1(COC(N)=N1)c1cc(-c3cncnc3)c(F)cc1O2 [Example 644, (5R)-8-fluoro-3-(3-methoxy-3-methyl-1-butyn-1-yl)-7-(5-pyrimidinyl)spiro[chromeno[2,3-b]pyridine-5,4′-[1,3]oxazol]-2′-amine] | 68.2 | – | 228 | –
8 | CC#Cc1cncc(-c2ccc3c(c2)[C@@]2(COC(N)=N2)c2cc(Cl)nc(N4CCC(F)(F)C4)c2O3)c1 [Example 925, (5S)-3-chloro-1-(3,3-difluoro-1-pyrrolidinyl)-7-(5-(1-propyn-1-yl)-3-pyridinyl)spiro[chromeno[2,3-c]pyridine-5,4′-[1,3]oxazol]-2′-amine] | 24.6 | – | 547 | –
9 | COc1ncc(Cl)cc1-c1ccc2c(c1)[C@@]1(COC(N)=N1)c1cc(C3=CCOCC3)ncc1O2 [Example 235, (5S)-7-(5-chloro-2-methoxy-3-pyridinyl)-3-(3,6-dihydro-2H-pyran-4-yl)spiro[chromeno[2,3-c]pyridine-5,4′-[1,3]oxazol]-2′-amine] | 1.2 | 14.7 | – | –
10 | CC(C)(C#N)COc1cc(F)c2c(c1)[C@]1(COC(N)=N1)c1cc(-c3cncc(Cl)c3)ccc1O2 [Example 204, 3-(((4S)-2-amino-7′-(5-chloro-3-pyridinyl)-4′-fluorospiro[1,3-oxazole-4,9′-xanthen]-2′-yl)oxy)-2,2-dimethylpropanenitrile] | 0.5 | 4.5 | – | –
11 | CC(C)(C)COc1cc(F)c2c(c1)[C@@]1(COC(N)=N1)c1cc(-c3cncnc3)c(F)cc1O2 [Example 525, (4R)-7′-(2,2-dimethylpropoxy)-3′,5′-difluoro-2′-(5-pyrimidinyl)spiro[1,3-oxazole-4,9′-xanthen]-2-amine] | 159 | – | 2390 | –
12 | COc1cncc(-c2ccc3c(c2)[C@@]2(COC(N)=N2)c2cc(C4=CCOCC4)ccc2O3)c1 [Example 194, (4R)-2′-(3,6-dihydro-2H-pyran-4-yl)-7′-(5-methoxy-3-pyridinyl)spiro[1,3-oxazole-4,9′-xanthen]-2-amine] | 8 | 27.4 | – | –
13 | CC1(C#Cc2cncc(-c3ccc4c(c3)[C@@]3(COC(N)=N3)c3cc(Cl)ncc3O4)c2)COC1 [Example 810, (5S)-3-chloro-7-(5-((3-methyl-3-oxetanyl)ethynyl)-3-pyridinyl)spiro[chromeno[2,3-c]pyridine-5,4′-[1,3]oxazol]-2′-amine] | 604 | ≥ 10000 | – | –
14 | CC(C)(C)C#Cc1cnc2c(c1)[C@@]1(COC(N)=N1)c1cc(-c3cncnc3)c(F)cc1O2 [Example 338, (5R)-3-(3,3-dimethyl-1-butyn-1-yl)-8-fluoro-7-(5-pyrimidinyl)spiro[chromeno[2,3-b]pyridine-5,4′-[1,3]oxazol]-2′-amine] | 213 | 1240 | – | –
15 | CC1(C#Cc2cc(F)c3c(c2)[C@]2(COC(N)=N2)c2cc(-c4ccc(F)nc4)ccc2O3)COC1 [Example 598] | 4.1 | – | 32 | –
16 | NC1=N[C@@]2(CO1)c1cc(-c3cccnc3N3CCC(F)(F)CC3)ccc1Oc1ncc(N3CCC(F)(F)CC3)cc12 [Example 477, (5S)-3-(4,4-difluoro-1-piperidinyl)-7-(2-(4,4-difluoro-1-piperidinyl)-3-pyridinyl)spiro[chromeno[2,3-b]pyridine-5,4′-[1,3]oxazol]-2′-amine] | 330 | – | 1200 | –
17 | Cn1cc(-c2cncc(-c3ccc4c(c3)[C@@]3(COC(N)=N3)c3cc(-c5cnn(C)c5)ncc3O4)c2)cn1 [Example 233, (5S)-3-(1-methyl-1H-pyrazol-4-yl)-7-(5-(1-methyl-1H-pyrazol-4-yl)-3-pyridinyl)spiro[chromeno[2,3-c]pyridine-5,4′-[1,3]oxazol]-2′-amine] | 28 | 92 | – | –

More lines, main results first:

Row | IC50 [1] [nM] | IC50 [2, 3] [nM] | IC50 [2, 4] [nM] | Structure (SMILES) | IC50 [2] [nM]
18 | 2.6 | 48.2 | – | NC1=NC2(CO1)c1cc(-c3cccnc3F)ccc1Oc1nc(F)c(C3=CCOCC3)cc12 (stereo not shown) [Example 150, 3-(3,6-dihydro-2H-pyran-4-yl)-2-fluoro-7-(2-fluoro-3-pyridinyl)spiro[chromeno[2,3-b]pyridine-5,4′-[1,3]oxazol]-2′-amine] | –
19 | 0.3 | 23 | – | NC1=N[C@@]2(CS1)c1cc(-c3cccnc3F)ccc1Oc1c(F)cc(N3C[C@H]4C[C@@H]3CO4)cc12 [Example 1085, (4S)-4′-fluoro-7′-(2-fluoro-3-pyridinyl)-2′-((1R,4R)-2-oxa-5-azabicyclo[2.2.1]hept-5-yl)spiro[1,3-thiazole-4,9′-xanthen]-2-amine] | –
20 | 0.9 | 4 | – | CC#Cc1cncc(-c2ccc3c(c2)[C@@]2(CSC(N)=N2)c2cc(C#CC4(C)COC4)cnc2O3)c1 [Example 782, (5S)-3-((3-methyl-3-oxetanyl)ethynyl)-7-(5-(1-propyn-1-yl)-3-pyridinyl)spiro[chromeno[2,3-b]pyridine-5,4′-[1,3]thiazol]-2′-amine] | –
21 | 2.2 | 6.8 | – | CC1(COc2cc(F)c3c(c2)[C@]2(COC(N)=N2)c2cc(-c4ccc(F)nc4)ccc2O3)COC1 [Example 266, (4S)-4′-fluoro-7′-(6-fluoro-3-pyridinyl)-2′-((3-methyl-3-oxetanyl)methoxy)spiro[1,3-oxazole-4,9′-xanthen]-2-amine] | –
22 | 67 | 1370 | – | Cc1ccc(-c2cc(F)c3c(c2)[C@]2(CSC(N)=N2)c2cc(-c4cccnc4F)ccc2O3)cn1 [Example 1086, (4S)-4′-fluoro-7′-(2-fluoro-3-pyridinyl)-2′-(6-methyl-3-pyridinyl)spiro[1,3-thiazole-4,9′-xanthen]-2-amine] | –
23 | 54.5 | 1070 | – | Cc1ccc(-c2ccc3c(c2)[C@@]2(COC(N)=N2)c2cc(-c4ccnc(F)c4)ncc2O3)c(F)n1 [Example 254, (5S)-7-(2-fluoro-6-methyl-3-pyridinyl)-3-(2-fluoro-4-pyridinyl)spiro[chromeno[2,3-c]pyridine-5,4′-[1,3]oxazol]-2′-amine] | –
24 | 5 | 59 | – | NC1=N[C@@]2(CS1)c1cc(-c3cnccc3F)ccc1Oc1ncc(-c3cccnc3F)cc12 [Example 788, (5S)-3-(2-fluoro-3-pyridinyl)-7-(4-fluoro-3-pyridinyl)spiro[chromeno[2,3-b]pyridine-5,4′-[1,3]thiazol]-2′-amine] | –
25 | 4830 | ≥ 10000 | – | CC#Cc1cncc(-c2cnc3c(c2)[C@]2(COC(N)=N2)c2cc(OC)ccc2O3)c1 [Example 775, (5S)-7-methoxy-3-(5-(1-propyn-1-yl)-3-pyridinyl)spiro[chromeno[2,3-b]pyridine-5,4′-[1,3]oxazol]-2′-amine] | –
26 | 8.3 | 518 | – | Cc1ncncc1-c1ccc2c(c1)[C@@]1(COC(N)=N1)c1cc(-c3ccnc(F)c3)ncc1O2 [Example 809, (5S)-3-(2-fluoro-4-pyridinyl)-7-(4-methyl-5-pyrimidinyl)spiro[chromeno[2,3-c]pyridine-5,4′-[1,3]oxazol]-2′-amine] | –
27 | 0.8 | 12 | – | Cc1cc(-c2cc3c(c(F)n2)Oc2ccc(-c4cccnc4F)cc2[C@@]32COC(N)=N2)ccn1 [Example 744, (5S)-1-fluoro-7-(2-fluoro-3-pyridinyl)-3-(2-methyl-4-pyridinyl)spiro[chromeno[2,3-c]pyridine-5,4′-[1,3]oxazol]-2′-amine] | –
28 | 0.5 | 8 | – | NC1=N[C@@]2(CS1)c1cc(-c3cccnc3)ccc1Oc1c(F)cc(C3=CCOCC3)cc12 [Example 796, (4S)-2′-(3,6-dihydro-2H-pyran-4-yl)-4′-fluoro-7′-(3-pyridinyl)spiro[1,3-thiazole-4,9′-xanthen]-2-amine] | –
29 | 11.1 | – | 68.4 | N#Cc1ncccc1-c1ccc2c(c1)[C@@]1(COC(N)=N1)c1cc(C3=CCOCC3)ncc1O2 [Example 389, 3-((5S)-2′-amino-3-(3,6-dihydro-2H-pyran-4-yl)spiro[chromeno[2,3-c]pyridine-5,4′-[1,3]oxazol]-7-yl)-2-pyridinecarbonitrile] | –
